Source: paper PMC10857906, “PROTAC-mediated NR4A1 degradation as a novel strategy for cancer immunotherapy” (The Journal of Experimental Medicine, 2024)

Assays:
[1] = target: T1, NR4A1 (Homo sapiens, UniProt P22736); experiment: NR4A1 degradation in CHL-1 human melanoma cells (immunoblotting); type: cell-based; settings: CHL-1 cells
T1 construct: NR-V04 effectively promoted the degradation of NR4A1 in two human melanoma cell lines within 16 h; endogenous in cells; host or cells: CHL-1, A375, WM164, M229 human melanoma cells
Procedure: Human melanoma cell lines: A375 and CHL-1 (gifts from Dr. D. Zhou, the University of Texas Health Science Center, San Antonio, TX, USA) were cultured in Dulbecco’s Modified Eagles’ Medium (DMEM, D5796; Sigma-Aldrich), WM164 and M229 (gifts from Dr. K.S.M. Smalley’s lab) were cultured in RPMI-1640 (R8758; Sigma-Aldrich). Mouse melanoma cell lines: B16F10 (CRL-6475, ATCC) was cultured in DMEM, SW1 and SM1 (gift from Dr. K.S.M. Smalley, Moffitt Cancer Center, Tampa, FL, USA) were cultured in RPMI. Human epithelial kidney cell lines: HEK293T (293T, CRL-3216; ATCC) and Vhl-KO-293T (gift from Dr. D. Zhou, the University of Texas Health Science Center, San Antonio, TX, USA) were cultured in DMEM. Mouse colon cancer cell lines: MC38 (ENH204-FP; Kerafast Inc.) was cultured in DMEM supplemented with 1 mM glutamine, […] non-essential amino acids (11140050; Thermo Fisher Scientific), 1 mM sodium pyruvate (11360070; Thermo Fisher Scientific), and 10 mM HEPES (15630080; Thermo Fisher Scientific). All cell culturing media were supplemented with 10% fetal bovine serum (FBS, F2442; Sigma-Aldrich), 100 U/ml penicillin, and 100 µg/ml streptomycin (P4333; Sigma-Aldrich).
Samples were lysed using radioimmunoprecipitation assay buffer (RIPA) lysis buffer (150 mM NaCl, 5 mM EDTA, 50 mM Tris pH 8.0, 0.5% sodium deoxycholate, 1% NP-40, 0.1% SDS) supplemented with 1 mM dithiothreitol and protease inhibitors. The lysates were separated by SDS-PAGE and analyzed using standard western blotting procedures ([Khan et al., 2019]). Antibodies: human NR4A1 (ab153914, 1:1,000; Abcam), mouse NR4A1 (14-5965-82, 1:1,000; Invitrogen), NR4A2 (AV38753, 1:1,000; Sigma-Aldrich), NR4A3 (TA804893, 1: 1,000; Thermo Fisher Scientific), VHL (68547, 1:1,000; Cell Signaling), β-actin (13E5, 1:5,000; Cell Signaling), β-tubulin (9F3, 1: 5,000; Cell Signaling), and GAPDH (D16H11, 1: 5,000; Cell Signaling) were employed for protein detection.

[2] = test system: MC38 tumors; experiment: MC38 colon cancer syngeneic tumor model; type: in vivo, mouse
Source text: 7–9-wk-old C57BL/6J, B6.129S2-Ighm^tm1Cgn/J (002288), B6.129S2-Nr4a1^tm1Jmi/J (NR4A1^−/−, 006187), and NOD-SCID interleukin-2 receptor gamma null (NSG) mice were purchased from Jackson Laboratories. For all studies involving NR-V04 and celastrol, the compounds were formulated in 50% phosal PG, 45% miglyol 810N, and 5% polysorbate 80 and administered via i.p. injection.
(§1) For syngeneic tumor models, 5 × 10^5 cells MC38, Yumm1.7, and Yummer1.7, 1 × 10^5 cells of B16F10 were resuspended in PBS and implanted into 7–9-wk-old mice subcutaneously. For the tumor inhibition experiment, mice were treated with 1.8 mg/kg NR-V04 or 0.75 mg/kg celastrol by i.p. injection twice weekly. For the immune profile experiment, once tumors reached 0.5 cm in diameter, mice were treated with 1.8 mg/kg NR-V04 by i.p. injection twice weekly. For the toxicity experiment, male and female non-tumor-bearing mice were treated with 2 mg/kg NR-V04 for two doses in the first week and 5 mg/kg for another two doses in the second week. Blood samples were taken from the submandibular (facial) vein before each treatment and 42 days later for hematological analysis, and body weight was measured twice per week up to day 42. Mice were euthanized in accordance with the IACUC protocol once the largest tumors reached 2 cm in diameter, and tissues were collected for further analysis.

[3] = Toxicity testing in non-tumor-bearing mice; type: in vivo, C57BL/6J mice
Procedure: as §1
Mouse blood was prepared in microcentrifuge tubes containing PBS with 10 mM EDTA. Blood indices were analyzed using an automated hematology analyzer (Element HT5; Heska).
For H&E staining, mouse tissues were fixed in 10% formalin (SF98-4; Thermo Fisher Scientific) processed in the University of Florida Molecular Pathology Core. H&E staining was conducted using standard procedures. The sections were hydrated through xylene and a series of ethanol, followed by staining with H&E on slides.

T1 sequence (P22736 whole entry): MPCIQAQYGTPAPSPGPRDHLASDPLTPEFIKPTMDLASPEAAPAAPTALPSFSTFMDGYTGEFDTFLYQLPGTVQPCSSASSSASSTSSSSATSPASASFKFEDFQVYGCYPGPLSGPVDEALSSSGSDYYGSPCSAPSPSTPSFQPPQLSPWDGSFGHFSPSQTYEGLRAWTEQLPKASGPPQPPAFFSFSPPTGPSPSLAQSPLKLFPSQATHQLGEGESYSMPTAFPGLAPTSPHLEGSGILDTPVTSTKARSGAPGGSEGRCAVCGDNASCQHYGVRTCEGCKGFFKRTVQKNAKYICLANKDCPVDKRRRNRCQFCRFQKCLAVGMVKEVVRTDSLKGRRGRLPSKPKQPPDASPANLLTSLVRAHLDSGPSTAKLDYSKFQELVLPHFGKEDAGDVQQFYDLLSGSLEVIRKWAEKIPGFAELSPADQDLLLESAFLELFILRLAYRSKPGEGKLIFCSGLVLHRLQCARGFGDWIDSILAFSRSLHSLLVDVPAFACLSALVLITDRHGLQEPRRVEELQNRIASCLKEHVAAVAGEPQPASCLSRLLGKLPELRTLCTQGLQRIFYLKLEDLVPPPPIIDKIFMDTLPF

**Q.** What does the source list for `CC1=C(O)C(=O)C=C2C1=CC=C1[C@@]2(C)CC[C@@]2(C)[C@@H]3C[C@](C)(C(=O)NCCOCCOCCOCCOCC(=O)N[C@H](C(=O)N4C[C@H](O)C[C@H]4C(=O)N[C@@H](C)c4ccc(-c5scnc5C)cc4)C(C)(C)C)CC[C@]3(C)CC[C@]12C` [NR-V04]?
**A.** NR4A1 protein level, initial screening ([1]; 250 nM, 16 h, immunoblotting and densitometry): highest potency in reducing the protein level of NR4A1; NR4A1 protein level with proteasome inhibitor MG132 pretreatment ([1]; 0.5 μM MG132 10 min, then 500 nM NR-V04 16 h): effectively rescued the NR4A1 protein level; NR4A1 protein level at early time point ([1]; 500 nM, 4 h): initial induction of NR4A1 protein; NR4A1 degradation with VHL ligand VHL-032 pretreatment ([1]; 10 µM VHL 032 10 min, then 500 nM NR-V04 16 h): prevented; DC50 ([1]; 16 h treatment, read-out: 50% degradation concentration (DC50) of NR4A1): 0.229 µM; tumor growth ([2]; MC38 in NSG mice, 1.8 mg/kg i.p.): failed to inhibit tumor growth; tumor growth ([2]; MC38 in WT mice, 1.8 mg/kg NR-V04 or 0.75 mg/kg celastrol i.p. twice a week from day 7): effectively inhibited tumor growth; CD8^+ Texh cells in vivo ([2]; MC38 tumors): did not observe a significant decrease in CD8^+ Texh cells; histology (H&E) of kidney, liver and small intestine ([3]; male and female mice, day 42): did not induce tissue damage; body weight ([3]; male and female mice, two doses of 2 mg/kg and two doses of 5 mg/kg over 2 wk, 42 days): no significant change in body weight; hematological parameters (complete blood counts) ([3]; two doses of 2 mg/kg and two doses of 5 mg/kg, day 0, 7, 14, 42): no significant changes in hematological parameters
